# Experimental data reported in paper PMC6013238, “Development of novel NEMO-binding domain mimetics for inhibiting IKK/NF-κB activation” (PLoS Biology, 2018).
# Several values for one entry are separate records, joined by “and”; a condition that tells them apart may be missing. Identical values can stand only once.
# What was measured:
# mdx mice [1] = assay: Chronic treatment of mdx mice, CD68 immunostaining (macrophages); assay type: in vivo, mouse; conditions: for CD68+ cells, number of cells per myofiber: SR12343 30 mg/kg 4 wk, single measures and ave, 30 mg/kg
# Method: To determine whether SR12343 and SR12460 improve muscle pathology, TA muscle was stained with hematoxylin–eosin to assess inflammatory infiltration, necrosis, central nucleation, and fibrosis. […] In addition, Masson trichrome stain was conducted to further measure muscle fibrosis. Chronic treatment with SR12343 reduced muscle fibrosis (blue) in diaphragm and TA muscle tissues in comparison to control group (Fig 8A & 8B). To further quantitate the extent of inflammation in mdx muscle tissues, diaphragm and TA muscle were immunostained for cluster of differentiation 68 (CD68), a macrophage marker. Treatment with SR12343 reduced the number of CD68^+ cells by almost 50% per myofiber in both diaphragm and TA tissues (Fig 8A & 8B). […] To quantify the average fiber size in an unbiased way, TA muscle was stained with laminin to outline myofibers, and Feret diameter of all myocytes was quantitated in a whole muscle section.
# Fig 8 Chronic treatment with NBD mimetics reduces muscle fibrosis by decreasing macrophage infiltration in mdx mice. (A, B) Trichrome and CD68 staining of (A) diaphragm and (B) TA muscle from 7-wk-old, SR12343-treated or -untreated mdx mice. CD68 (red): marker of tissue macrophage; utrophin (green): stain for myofiber; DAPI (blue): nuclei. Trichrome images were taken at the magnification of 4× for TA and 10× for diaphragm. IHC images were taken at 10× for TA and 20× for diaphragm. Representative images were shown for each treatment group. Data were shown as mean +/− SEM. *P < 0.05; **P < 0.01; ***P < 0.001. Underlying data can be found in S1 Data. CD68, cluster of differentiation 68; IHC, immunohistochemistry; NBD, NEMO-binding domain; NEMO, NF-κB essential modulator; TA, tibialis anterior.
# The frozen tissue sections were fixed with 4% paraformaldehyde for 1 h and incubated with 1% BSA for blocking. The primary antibodies CD68 (Abcam, Cambridge, MA) and utrophin (Santa Cruz) were applied at 1:200 for 2 h. The secondary antibodies Alexa Fluor 594 and Alexa Fluor 488 were then applied at 1:400 for 1 h. DAPI (1;1000) solution was used to stain the cell nucleus. All the processes were performed at room temperature.
# mdx mice [2] = assay: Chronic treatment of mdx mice, qRT-PCR of eMyHC and Pax7 in TA muscle; assay type: in vivo, mouse; conditions: Fig 7D, SR 30 mg/kg, 8K-NBD 10 mg/kg, 4 wk, single mice
# Source text: Fig 7 NBD mimetics improve muscular pathology and grip strength in mdx mice. (A) Shown is the treatment regimen with NBD mimetics in mdx mice. (B) Hematoxylin–eosin staining of TA muscle from 7-wk-old, treated or untreated mdx mice. Images were taken at magnification of 20×. Representative images were shown for each treatment group. […] (E) TA muscle from 7-wk-old, treated or untreated mdx mice was stained with laminin by IHC to outline myofibers. Overall images of TA muscle were shown on the left side, and the inset panel images were shown on the right side. (F) Quantitation of minimum Feret diameter in centrally and noncentrally nucleated myofibers. (G) Forelimb force determined by grip strength test. […] Underlying data can be found in S1 Data. eMyHC, embryonic myosin heavy chain; IHC, immunohistochemistry; NBD, NEMO-binding domain; NEMO, NF-κB essential modulator; Pax7, paired box protein 7; qRT-PCR, quantitative real-time polymerase chain reaction; TA, tibialis anterior.
# To determine whether SR12343 and SR12460 improve muscle pathology, TA muscle was stained with hematoxylin–eosin to assess inflammatory infiltration, necrosis, central nucleation, and fibrosis. […] To further quantitate the extent of inflammation in mdx muscle tissues, diaphragm and TA muscle were immunostained for cluster of differentiation 68 (CD68), a macrophage marker. […]
compound,measurement,setting,value
O=C(CNc1ccc(Cl)cn1)NCCc1cccc(Br)c1 [SR12343],"CD68+ cells, number of cells per myofiber","mdx mice [1]; Fig 8A, diaphragm muscle",1.156 and 1.07 and 1.196
same,"CD68+ cells, number of cells per myofiber","mdx mice [1]; Fig 8A, diaphragm muscle, mean",1.14
same,"CD68+ cells, number of cells per myofiber","mdx mice [1]; Fig 8B, TA muscle",0.646 and 0.5862 and 0.6154
same,"CD68+ cells, number of cells per myofiber","mdx mice [1]; Fig 8B, TA muscle, mean",0.6159
same,Reduction of number of CD68+ cells per myofiber,mdx mice [1]; diaphragm and TA tissues,~50%
same,Pax7 mRNA in TA muscle (qRT-PCR),mdx mice [2],1.512 and 1.485 and 1.5466 and 1.253 and 1.1889 and 1.394
